From patent US6133279A, “Therapeutic agents for renal diseases and organ preservatives” (Chugai Seiyaku Kabushiki Kaisha, priority 1996, dated 2000)

Columns and labels:
[1] = test system: porcine kidney-derived LLC-PK1 cells; assay: Protective effect against oxidized LDL-induced injury of porcine kidney-derived LLC-PK1 cells (2); type: cell-based; settings: Sus scrofa, LLC-PK1, 6 h, mean ± standard deviation, read-out: Cytoprotection rate (%)
Experimental: For the purpose of evaluating in vitro cytoprotective effect of the compounds of the present invention, a cytoprotective study was performed using porcine kidney-derived LLC-PK1 cells (ATCC-CRL-13921) injured by oxidized low-density lipoprotein (oxidized LDL) in the same manner as in Test example 1 with the exception of some points.
Preparation of oxidized LDL and the conditions for cell culture and addition of test compounds were the same as in Test example 1. However, oxidized LDL was not diluted with saline and added to cells in an amount of 25 μl/well to a concentration of 91 μg/ml and the cells were cultured for 6 hours after addition of the oxidized LDL. Then, 150 μl/well of the culture medium were collected and measured for the lactate dehydrogenase (LDH) level (LD-L: SIGMA DIAGNOSTICS) having leaked in the medium.

[2] = test system: porcine kidney-derived LLC-PK1 cells; assay: Protective effect against oxidized LDL-induced injury of porcine kidney-derived LLC-PK1 cells (1); type: cell-based; settings: Sus scrofa, LLC-PK1, 6 h, mean ± standard deviation, read-out: Cytoprotection rate (%)
Experimental: For the purpose of evaluating in vitro cytoprotective effect of the compounds of the present invention, a cytoprotective study was performed using porcine kidney-derived LLC-PK1 cells (ATCC-CRL-13921) injured by oxidized low-density lipoprotein (oxidized LDL).
Oxidized LDL was prepared by incubating 1 mg/ml of rabbit LDL in PBS (-) in the presence of 10 μM CuSO4 at 37° C. for 24 hours. Cell culture was carried out by plating 1.25×10^4 cells/250 μl/well on a 48-well plate containing M199 medium containing 3% FBS. Test compounds were dissolved or suspended in ethanol and added to the wells in an amount of 1.25 μl/well to a concentration of 0.1, 1 or 10 μM in each well. After 16 hours or immediately after the addition of the compounds, oxidized LDL was added to the wells. Probucol, α-tocopherol and Trolox which is a water-soluble analogue of α-tocopherol were used as reference control compounds. Oxidized LDL was diluted twice with saline and then added to the wells in an amount of 62.5 μl/well to a concentration of 100 μg/ml and the cells were cultured for 6 hours after addition of the oxidized LDL. Then, 162.5 μl/well of the culture medium were collected and measured for the lactate dehydrogenase (LDH) level (LD-L: SIGNA DIAGNOSTICS) having leaked into the medium.
The magnitude of cytoprotective effect was expressed as the cytoprotection rate which was determined by calculating the data assuming that the magnitude in wells containing oxidized LDL is 0% and that the magnitude in wells containing saline is 100%.

[3] = compound added 16 hours before adding oxidized LDL
[4] = compound added immediately before adding oxidized LDL

CC1(C(=O)O)Cc2c(cc(C(C)(C)C)c(O)c2C(C)(C)C)O1 (stereo not drawn) [Example 72, 4,6-Di-t-butyl-5-hydroxy-2-methyl-2,3-dihydrobenzofuran-2-carboxylic acid]
inhibition at 0.1 µM [1, 3]: 2.3 ± 1.3%
inhibition at 0.1 µM [1, 4]: 2.7 ± 4.3%
inhibition at 1 µM [1, 3]: 14.8 ± 2%
inhibition at 1 µM [1, 4]: 14%
inhibition at 10 µM [1, 3]: 95.9 ± 1.3%
inhibition at 10 µM [1, 4]: 95.2 ± 0.9%

CCCCCC1(CCCCC)Cc2c(cc(C(C)(C)C)c(O)c2C(C)(C)C)S1 [Example 50, 4,6-Di-t-butyl-5-hydroxy-2,2-di-n-pentyl-2,3-dihydrobenzothiophene]
inhibition at 0.1 µM [2, 3]: 1.9 ± 8%
inhibition at 0.1 µM [2, 4]: 9.3 ± 3.3%
inhibition at 1 µM [2, 3]: 37.4 ± 17.1%
inhibition at 1 µM [2, 4]: 15.3%
inhibition at 10 µM [2, 3]: 81.6 ± 4%
inhibition at 10 µM [2, 4]: 99.2 ± 1.3%

CCCc1c2c(c(C(C)(C)C)c(O)c1C(C)(C)C)CC(C)(C)O2 [Example 25, 5-Hydroxy-4,6-di-t-butyl-2,2-dimethyl-7-propyl-2,3-dihydrobenzofuran]
inhibition at 0.1 µM [2, 3]: 47.4 ± 6%
inhibition at 0.1 µM [2, 4]: 1.4 ± 3.8%
inhibition at 1 µM [2, 3]: 7.9 ± 10.8%
inhibition at 1 µM [2, 4]: 0.8%
inhibition at 10 µM [2, 3]: 28.6 ± 6.4%
inhibition at 10 µM [2, 4]: 66.5 ± 7.7%

CC(C)(C)c1cc2sccc2c(C(C)(C)C)c1O [Example 54, 4,6-Di-t-butyl-5-hydroxybenzo[b]thiophene]
inhibition at 0.1 µM [2, 3]: 96 ± 0.5%
inhibition at 0.1 µM [2, 4]: 35.9 ± 26.4%
inhibition at 1 µM [2, 3]: 90 ± 5%
inhibition at 1 µM [2, 4]: 96.7%
inhibition at 10 µM [2, 3]: 94.8 ± 2.2%
inhibition at 10 µM [2, 4]: 98.9 ± 0.4%

CC(=O)Oc1c(C(C)(C)C)cc2c(c1C(C)(C)C)CC(C)(C)O2 [Example 3, 5-Acetoxy-4,6-di-t-butyl-2,2-dimethyl-2,3-dihydrobenzofuran]
inhibition at 0.1 µM [2, 3]: 27 ± 18.2%
inhibition at 0.1 µM [2, 4]: -6.5 ± 2.7%
inhibition at 1 µM [2, 3]: 1.8 ± 6.8%
inhibition at 1 µM [2, 4]: -4%
inhibition at 10 µM [2, 3]: 23.2 ± 11.3%
inhibition at 10 µM [2, 4]: 4.3 ± 3.6%

CC1(CN)Cc2c(cc(C(C)(C)C)c(O)c2C(C)(C)C)O1 (stereo not drawn) [Example 70, 2-Aminomethyl-4,6-di-t-butyl-5-hydroxy-2-methyl-2,3-dihydrobenzofuran]
inhibition at 0.1 µM [1, 3]: 17.5 ± 2.2%
inhibition at 0.1 µM [1, 4]: 9.9 ± 2.4%
inhibition at 1 µM [1, 3]: 101 ± 0.7%
inhibition at 1 µM [1, 4]: 101%
inhibition at 10 µM [1, 3]: 100.7 ± 0.8%
inhibition at 10 µM [1, 4]: 101.3 ± 0.6%

CC(C)(C)c1cc2c(c(C(C)(C)C)c1O)CC1(CCCC1)O2 [Example 18, 4,6-Di-t-butyl-5-hydroxy-2,3-dihydrobenzofuran-2-spiro-1'-cyclopentane]
inhibition at 0.1 µM [2, 3]: -1.9 ± 17.3%
inhibition at 0.1 µM [2, 4]: -4.5 ± 6.3%
inhibition at 1 µM [2, 3]: 66.8 ± 22.2%
inhibition at 1 µM [2, 4]: 98.4%
inhibition at 10 µM [2, 3]: 99.9 ± 0.2%
inhibition at 10 µM [2, 4]: 99.7 ± 0.2%

CC(C)(C)c1cc2c(c(C(C)(C)C)c1O)CCO2 [Example 1, 4,6-Di-t-butyl-5-hydroxy-2,3-dihydrobenzofuran]
inhibition at 0.1 µM [2, 3]: 22.3 ± 2.8%
inhibition at 0.1 µM [2, 4]: 7.6 ± 1.4%
inhibition at 1 µM [2, 3]: 104 ± 3.3%
inhibition at 1 µM [2, 4]: 99.7 ± 0.4%
inhibition at 10 µM [2, 3]: 100.9 ± 0.5%
inhibition at 10 µM [2, 4]: 100.9 ± 0.3%

CC(C)(C)c1cc2c(c(C(C)(C)C)c1O)CC1(CCSCC1)O2 [Example 68, 4,6-Di-t-butyl-5-hydroxy-2,3-dihydrobenzofuran-2-spiro-4'-tetrahydrothiopyran]
inhibition at 0.1 µM [1, 3]: 12 ± 3.6%
inhibition at 0.1 µM [1, 4]: 6.3 ± 3.3%
inhibition at 1 µM [1, 3]: 56.2 ± 4.6%
inhibition at 1 µM [1, 4]: 85.8%
inhibition at 10 µM [1, 3]: 102 ± 1.5%
inhibition at 10 µM [1, 4]: 100.6 ± 0.2%

COC(=O)C1(C)Cc2c(cc(C(C)(C)C)c(O)c2C(C)(C)C)O1 (stereo not drawn) [Example 73, 4,6-Di-t-butyl-5-hydroxy-2-methoxycarbonyl-2-methyl-2,3-dihydrobenzofuran]
inhibition at 0.1 µM [1, 3]: 5.7 ± 1.4%
inhibition at 0.1 µM [1, 4]: 4.8 ± 2.9%
inhibition at 1 µM [1, 3]: 78.9 ± 16.9%
inhibition at 1 µM [1, 4]: 97.8%
inhibition at 10 µM [1, 3]: 99.7 ± 1.4%
inhibition at 10 µM [1, 4]: 99.4 ± 0.3%

CC1(CC#N)Cc2c(cc(C(C)(C)C)c(O)c2C(C)(C)C)O1 (stereo not drawn) [Example 71, 4,6-Di-t-butyl-2-cyanomethyl-5-hydroxy-2-methyl-2,3-dihydrobenzofuran]
inhibition at 0.1 µM [1, 3]: 10.4 ± 2.2%
inhibition at 0.1 µM [1, 4]: 4.3 ± 4.1%
inhibition at 1 µM [1, 3]: 26.9 ± 2.5%
inhibition at 1 µM [1, 4]: 80.2%
inhibition at 10 µM [1, 3]: 105.6 ± 0.6%
inhibition at 10 µM [1, 4]: 107 ± 2%

CC(C)(C)c1cc2c(c(C(C)(C)C)c1O)CC1(CCCCC1)S2 [Example 58, 4,6-Di-t-butyl-5-hydroxy-2,3-dihydrobenzothiophene-2-spiro-1'-cyclohexane]
inhibition at 0.1 µM [2, 3]: 3.6 ± 18.3%
inhibition at 0.1 µM [2, 4]: 11 ± 4%
inhibition at 1 µM [2, 3]: 95 ± 4.2%
inhibition at 1 µM [2, 4]: 74.3%
inhibition at 10 µM [2, 3]: 99.3 ± 0.9%
inhibition at 10 µM [2, 4]: 101 ± 0.2%

CC(C)(C)c1cc2c(c(C(C)(C)C)c1O)CC1(CCCCC1)O2 [Example 19, 4,6-Di-t-butyl-5-hydroxy-2,3-dihydrobenzofuran-2-spiro-1'-cyclohexane]
inhibition at 0.1 µM [1, 3]: 2.7 ± 1.6%
inhibition at 0.1 µM [1, 4]: 1.2 ± 0.9%
inhibition at 1 µM [1, 3]: 60.6 ± 6.1%
inhibition at 1 µM [1, 4]: 86.8 ± 5.2%
inhibition at 10 µM [1, 3]: 103 ± 1.2%
inhibition at 10 µM [1, 4]: 101 ± 2.5%

CC1(CO)Cc2c(cc(C(C)(C)C)c(O)c2C(C)(C)C)O1 (stereo not drawn) [Example 48, 4,6-Di-t-butyl-5-hydroxy-2-hydroxymethyl-2-methyl-2,3-dihydrobenzofuran]
inhibition at 0.1 µM [2, 3]: -0.5 ± 23.4%
inhibition at 0.1 µM [2, 4]: 3.8 ± 0.3%
inhibition at 1 µM [2, 3]: 84.2 ± 4.4%
inhibition at 1 µM [2, 4]: 102%
inhibition at 10 µM [2, 3]: 98.1 ± 0.7%
inhibition at 10 µM [2, 4]: 98.2 ± 0.3%

CC(C)(C)c1cc2c(c(C(C)(C)C)c1O)CC(C(C)(C)C)O2 (stereo not drawn) [Example 13, 2,4,6-Tri-t-butyl-5-hydroxy-2,3-dihydrobenzofuran]
inhibition at 0.1 µM [2, 3]: 32 ± 2.8%
inhibition at 0.1 µM [2, 4]: 11.9 ± 1.9%
inhibition at 1 µM [2, 3]: 55.6 ± 15%
inhibition at 1 µM [2, 4]: 97.8%
inhibition at 10 µM [2, 3]: 99.9 ± 0.2%
inhibition at 10 µM [2, 4]: 100.4 ± 0.4%

CC1Cc2c(cc(C(C)(C)C)c(O)c2C(C)(C)C)S1 (stereo not drawn) [Example 51, 4,6-Di-t-butyl-5-hydroxy-2-methyl-2,3-dihydrobenzothiophene]
inhibition at 0.1 µM [2, 3]: -6.1 ± 7.6%
inhibition at 0.1 µM [2, 4]: 2.2 ± 4.9%
inhibition at 1 µM [2, 3]: 17.8 ± 18.1%
inhibition at 1 µM [2, 4]: 28.9%
inhibition at 10 µM [2, 3]: 99.3 ± 0.7%
inhibition at 10 µM [2, 4]: 101.4 ± 0.3%

CC1(C)Cc2c(cc(C(C)(C)C)c(O)c2C(C)(C)C)O1 [Example 4, 4,6-Di-t-butyl-5-hydroxy-2,2-dimethyl-2,3-dihydrobenzofuran]
inhibition at 0.1 µM [2, 3]: 11.5 ± 8%
inhibition at 0.1 µM [2, 4]: -9.6 ± 2.2%
inhibition at 1 µM [2, 3]: 106 ± 1.2%
inhibition at 1 µM [2, 4]: 103%
inhibition at 10 µM [2, 3]: 100.4 ± 0.3%
inhibition at 10 µM [2, 4]: 99.6 ± 0.8%

CC(C)(C)c1cc2c(c(C(C)(C)C)c1O)CC1(CCOCC1)O2 [Example 22, 4,6-Di-t-butyl-5-hydroxy-2,3-dihydrobenzofuran-2-spiro-4'-tetrahydropyran]
inhibition at 0.1 µM [2, 3]: 3.5 ± 10.4%
inhibition at 0.1 µM [2, 4]: -1.7 ± 0.2%
inhibition at 1 µM [2, 3]: 102.2 ± 0.2%
inhibition at 1 µM [2, 4]: 101%
inhibition at 10 µM [2, 3]: 101 ± 0.5%
inhibition at 10 µM [2, 4]: 101.1 ± 0.2%

CC(C)(C)c1cc2occc2c(C(C)(C)C)c1O [Example 27, 4,6-Di-t-butyl-5-hydroxybenzofuran]
inhibition at 0.1 µM [2, 3]: 44.1 ± 24.3%
inhibition at 0.1 µM [2, 4]: 4.2 ± 1.4%
inhibition at 1 µM [2, 3]: 96 ± 0.7%
inhibition at 1 µM [2, 4]: 91%
inhibition at 10 µM [2, 3]: 97.7 ± 1.7%
inhibition at 10 µM [2, 4]: 96.8 ± 0.5%

C/C(=C\CCC1(C)Cc2c(cc(C(C)(C)C)c(O)c2C(C)(C)C)O1)CO (stereo not drawn) [Example 46, 4,6-Di-t-butyl-5-hydroxy-2-(5-hydroxy-4-methyl-3(E)-pentenyl)-2-methyl-2,3-dihydrobenzofuran]
inhibition at 0.1 µM [2, 3]: 11 ± 1.5%
inhibition at 0.1 µM [2, 4]: -8.9 ± 3.1%
inhibition at 1 µM [2, 3]: 53.5 ± 10%
inhibition at 1 µM [2, 4]: 101%
inhibition at 10 µM [2, 3]: 104 ± 2%
inhibition at 10 µM [2, 4]: 104.4 ± 0.4%

CCCOc1cc(C(C)(C)C)c(O)c(C(C)(C)C)c1C [Example 31, 2,6-Di-t-butyl-3-methyl-4-propyloxyphenol]
inhibition at 0.1 µM [2, 3]: -0.1 ± 18.7%
inhibition at 0.1 µM [2, 4]: 6.9 ± 1.1%
inhibition at 1 µM [2, 3]: 3.5 ± 18.5%
inhibition at 1 µM [2, 4]: 15.7%
inhibition at 10 µM [2, 3]: 68.8 ± 15.8%
inhibition at 10 µM [2, 4]: 71.8 ± 6.9%

CC1(C)Cc2c(cc(C(C)(C)C)c(O)c2C(C)(C)C)S1 [Example 52, 4,6-Di-t-butyl-5-hydroxy-2,2-dimethyl-2,3-dihydrobenzothiophene]
inhibition at 0.1 µM [2, 3]: 6.5 ± 1.4%
inhibition at 0.1 µM [2, 4]: -0.7 ± 1.1%
inhibition at 1 µM [2, 3]: 41.2 ± 11.9%
inhibition at 1 µM [2, 4]: 96.9%
inhibition at 10 µM [2, 3]: 99.1 ± 0.1%
inhibition at 10 µM [2, 4]: 99.5 ± 0.4%
